This note sets out measurements from US7179806B2, “Δ1-pyrrolines used as pesticides” (Bayer Cropscience AG, priority 2000, dated 2007).

The nature of the data set: log P determination by HPLC (reversed-phase C18, EEC Directive 79/831 Annex V.A8). Type of data set: physicochemical. To be noted: reversed-phase C18 HPLC column, pH 2.3, pH 2.3, 0.1% aqueous phosphoric acid/acetonitrile gradient, 43° C. From the text:
Mobile phases for determination in the acidic range: 0.1% aqueous phosphoric acid, acetonitrile; linear gradient from 10% acetonitrile to 90% acetonitrile.

`CC1(C)CCN(c2ncc(-c3ccc(C4CCC(c5c(F)cccc5F)=N4)cc3)cn2)CC1` (stereo not shown) [Example 120] yielded a chromatographic logP of 4.38. The figure for `Fc1cccc(F)c1C1=NC(c2ccc(-c3cnc(OC4CCC4)nc3)cc2)CC1` (stereo not shown) [Example 197] is 2.88; for `CCOc1ncc(-c2ccc(C3CCC(c4c(F)cccc4F)=N3)cc2)cn1` (stereo not shown) [Example 102] it is 2.21; for `COCCN(CCOC)c1ncc(-c2ccc(C3CCC(c4c(F)cccc4F)=N3)cc2)cn1` (stereo not shown) [Example 107] it is 2.48. The figure for `CCCCCNc1ncc(-c2ccc(C3CCC(c4c(F)cccc4F)=N3)cc2)cn1` (stereo not shown) [Example 154] is 2.9; for `Fc1cccc(F)c1C1=NC(c2ccc(-c3cnc(-n4cccn4)nc3)cc2)CC1` (stereo not shown) [Example 130] it is 1.98. In the case of `Fc1cccc(F)c1C1=NC(c2ccc(-c3cnc(SCSC(F)(F)F)nc3)cc2)CC1` (stereo not shown) [Example 92] it was 4; in that of `Fc1cccc(F)c1C1=NC(c2ccc(-c3ccc(N4CCCC4)nc3)cc2)CC1` (stereo not shown) [Example 24], 1.45; in that of `O=C(OCc1ccccc1)N1CCN(c2ccc(Cl)nn2)CC1` [III-13, benzyl 4-(6-chloro-3-pyridazinyl)-1-piperazinecarboxylate], 2.36. The compound `CC(=O)c1ccc(-c2ccc(C3CCC(c4c(F)cccc4F)=N3)cc2)nc1` (stereo not shown) [Example 211] had a chromatographic logP of 2. In the case of `Fc1cccc(F)c1C1=NC(c2ccc(-c3cnc(OCC(F)(F)F)nc3)cc2)CC1` (stereo not shown) [Example 3, 5-{4-[5-(2,6-difluorophenyl)-3,4-dihydro-2H-pyrrol-2-yl]phenyl}-2-(2,2,2-trifluorethoxy)pyrimidine] it was 2.88. In turn, `CN(C)CCN1CCN(c2ncc(-c3ccc(C4CCC(c5c(F)cccc5F)=N4)cc3)cn2)CC1` (stereo not shown) [Example 132] yielded a chromatographic logP of 3.

Compound `CCC(CC)N1CCN(c2ccc(-c3ccc(C4CCC(c5c(F)cccc5F)=N4)cc3)cn2)CC1` (stereo not shown) [Example 138] displayed a chromatographic logP of 1.39.

The compound `CC(C#N)c1ccc(-c2ccc(C3CCC(c4c(F)cccc4F)=N3)cc2)nc1` (stereo not shown) [Example 213] registered a chromatographic logP of 1.98. On to `CCCCCC(=O)N(C)c1ccc(-c2ccc(C3CCC(c4c(F)cccc4F)=N3)cc2)nn1` (stereo not shown) [Example 68], for which the chromatographic logP worked out at 3.24. The figure for `CC(C)(C)C(=O)N(c1ccc(-c2ccc(C3CCC(c4c(F)cccc4F)=N3)cc2)nn1)C1CCCCC1` (stereo not shown) [Example 65] is 3.56; for `O/N=C/c1ccc(-c2ccc(C3CCC(c4c(F)cccc4F)=N3)cc2)nc1` (stereo not shown) [Example 210] it is 1.58; for `C=CCN(CC=C)c1ncc(-c2ccc(C3CCC(c4c(F)cccc4F)=N3)cc2)cn1` (stereo not shown) [Example 108] it is 3.74. In the case of `Fc1ccccc1N1CCN(c2ccc(-c3ccc(C4CCC(c5c(F)cccc5F)=N4)cc3)cn2)CC1` (stereo not shown) [Example 171] it was 2.51; in that of `CCN(Cc1ccco1)c1ncc(-c2ccc(C3CCC(c4c(F)cccc4F)=N3)cc2)cn1` (stereo not shown) [Example 183], 3.59; in that of `N#Cc1ccccc1N1CCN(c2ncc(-c3ccc(C4CCC(c5c(F)cccc5F)=N4)cc3)cn2)CC1` (stereo not shown) [Example 146], 3.78. The figure for `Cc1cccc(N2CCN(c3ncc(-c4ccc(C5CCC(c6c(F)cccc6F)=N5)cc4)cn3)CC2)c1C` (stereo not shown) [Example 134] is 5.78. `CN(C(=O)C(C)(C)C)c1ccc(Cl)nn1` [III-17, N-(6-chloro-3-pyridazinyl)-N-methyl-N-2,2-trimethylpropanamide] came in with a chromatographic logP of 1.69. As to `O=C1CCCCCN1c1ccc(-c2ccc(C3CCC(c4c(F)cccc4F)=N3)cc2)cn1` (stereo not shown) [Example 106], the chromatographic logP turned out to be 2.25. `Fc1cccc(F)c1C1=NC(c2ccc(-c3ccc(N4CCCC4)nn3)cc2)CC1` (stereo not shown) [Example 81] displayed a chromatographic logP of 1.28. The figure for `CC(C)COC(=O)c1ccc(-c2ccc(C3CCC(c4c(F)cccc4F)=N3)cc2)nc1` (stereo not shown) [Example 9] is 3.28.

Take `Fc1cccc(F)c1C1=NC(c2ccc(-c3cnc(N4CCCC4)nc3)cc2)CC1` (stereo not shown) [Example 41]: the chromatographic logP was found to be 2.11. The figure for `CC(C)Sc1ncc(Br)cn1` [III-8, 5-bromo-2-pyrimidinyl isopropyl sulphide] is 3.34. The figure for `COCCN1CCN(c2ncc(-c3ccc(C4CCC(c5c(F)cccc5F)=N4)cc3)cn2)CC1` (stereo not shown) [Example 148] is 1.49; for `COCCCN1CCN(c2ccc(-c3ccc(C4CCC(c5c(F)cccc5F)=N4)cc3)cn2)CC1` (stereo not shown) [Example 195] it is 1.16. In the case of `CC(=O)N(c1ccc(-c2ccc(C3CCC(c4c(F)cccc4F)=N3)cc2)nn1)C(C)C` (stereo not shown) [Example 54] it was 2.03; in that of `CCN(CC)c1ccc(-c2ccc(C3CCC(c4c(F)cccc4F)=N3)cc2)nn1` (stereo not shown) [Example 80], 1.39. For the compound `Fc1cccc(F)c1C1=NC(c2ccc(-c3ncc(Cl)cn3)cc2)CC1` (stereo not shown) [Example 218], the chromatographic logP came to 2.87. For `CCCCCCN(C(=O)C(C)(C)C)c1ccc(-c2ccc(C3CCC(c4c(F)cccc4F)=N3)cc2)nn1` (stereo not shown) [Example 61], the chromatographic logP came to 4.35. As to `CCCCCN1CCN(c2ncc(-c3ccc(C4CCC(c5c(F)cccc5F)=N4)cc3)cn2)CC1` (stereo not shown) [Example 155], the chromatographic logP came out at 2.02. Compound `CC(C)Oc1ccc(-c2ccc(C3CCC(c4c(F)cccc4F)=N3)cc2)nn1` (stereo not shown) [Example 46] returned a chromatographic logP of 2.5. In the case of `CC(C)Sc1ccc(Cl)nn1` [III-20, 6-chloro-3-pyridazinyl isopropyl sulphide] it was 2.34; in that of `N#CCCN1CCN(c2ncc(-c3ccc(C4CCC(c5c(F)cccc5F)=N4)cc3)cn2)CC1` (stereo not shown) [Example 131], 1.69. The figure for `Cc1cccc(C)c1N1CCN(c2ccc(-c3ccc(C4CCC(c5c(F)cccc5F)=N4)cc3)cn2)CC1` (stereo not shown) [Example 205] is 3.76; for `CN(Cc1ccc(-c2ccc(C3CCC(c4c(F)cccc4F)=N3)cc2)nc1)S(=O)(=O)C(F)(F)F` (stereo not shown) [Example 13] it is 3.06; for `Fc1cccc(F)c1C1=NC(c2ccc(-c3ccc(OC(F)F)nc3)cc2)CC1` (stereo not shown) [Example 127] it is 3.13. The figure for `FC(F)=C(F)CCOc1ccc(-c2ccc(C3CCC(c4c(F)cccc4F)=N3)cc2)nn1` (stereo not shown) [Example 74] is 2.95. Compound `Fc1cccc(F)c1C1=NC(c2ccc(-c3ncc(-c4ccc(Cl)cc4)cn3)cc2)CC1` (stereo not shown) [Example 188] showed a chromatographic logP of 4.12. The figure for `Cc1ccc(-c2ccc(C3CCC(c4c(F)cccc4F)=N3)cc2)nc1` (stereo not shown) [Example 202] is 1.24; for `Cc1ccc(N2CCN(c3ccc(-c4ccc(C5CCC(c6c(F)cccc6F)=N5)cc4)cn3)CC2)cc1C` (stereo not shown) [Example 191] it is 2.58. The figure for `CCCN(C(=O)C(C)(C)C)c1ccc(-c2ccc(C3CCC(c4c(F)cccc4F)=N3)cc2)nn1` (stereo not shown) [Example 62] is 2.95. `O=C1CCN(c2ncc(-c3ccc(C4CCC(c5c(F)cccc5F)=N4)cc3)cn2)CC1` (stereo not shown) [Example 214] returned a chromatographic logP of 2. Turning to `CCC(C)N(Cc1ccco1)c1ncc(-c2ccc(C3CCC(c4c(F)cccc4F)=N3)cc2)cn1` (stereo not shown) [Example 185], the chromatographic logP amounted to 4.54. In the case of `CCN(Cc1ccc(-c2ccc(C3CCC(c4c(F)cccc4F)=N3)cc2)nc1)S(=O)(=O)C(F)(F)F` (stereo not shown) [Example 17] it was 3.35; in that of `CCC(C)N1CCN(c2ccc(-c3ccc(C4CCC(c5c(F)cccc5F)=N4)cc3)cn2)CC1` (stereo not shown) [Example 113], 1.3; in that of `Fc1cccc(F)c1C1=NC(c2ccc(-c3cnc(NC4CC4)nc3)cc2)CC1` (stereo not shown) [Example 160], 1.65. In the case of `Fc1cccc(F)c1C1=NC(c2ccc(-c3cnc(N4CCC5(CC4)OCCO5)nc3)cc2)CC1` (stereo not shown) [Example 187] it was 2.51; in that of `Fc1cccc(F)c1C1=NC(c2ccc(-c3ccccn3)cc2)CC1` (stereo not shown) [Example 4], 1.24; in that of `CC(C)(C)c1ccc(CN2CCN(c3ccc(-c4ccc(C5CCC(c6c(F)cccc6F)=N5)cc4)cn3)CC2)cc1` (stereo not shown) [Example 176], 2.23. As to `CC(C)(C)C(=O)N(c1ccc(-c2ccc(C3CCC(c4c(F)cccc4F)=N3)cc2)nn1)C1CCCC1` (stereo not shown) [Example 63], the chromatographic logP was found to be 3.22. In the case of `CN(C)c1ccc(-c2ccc(C3CCC(c4c(F)cccc4F)=N3)cc2)nn1` (stereo not shown) [Example 79] it was 1.08; in that of `Fc1cccc(F)c1C1=NC(c2ccc(-c3ccc(Cl)nc3)cc2)CC1` (stereo not shown) [Example 19], 2.58; in that of `CCCN(CC)c1ncc(-c2ccc([C@H]3CCC(c4c(F)cccc4F)=N3)cc2)cn1` [Example 163], 3.58. `Fc1cccc(F)c1C1=NC(c2ccc(-c3ccc(N4CCOCC4)nc3)cc2)CC1` (stereo not shown) [Example 21]: the chromatographic logP was determined as 1.44.

`Fc1cccc(F)c1C1=NC(c2ccc(-c3cnc(N4CCN(c5ccccn5)CC4)nc3)cc2)CC1` (stereo not shown) [Example 159] displayed a chromatographic logP of 2.06. In the case of `O=Cc1ccc(-c2ccc(C3CCC(c4c(F)cccc4F)=N3)cc2)nc1` (stereo not shown) [Example 221] it was 1.95; in that of `CCN(CC)C(=O)c1ccc(-c2ccc(C3CCC(c4c(F)cccc4F)=N3)cc2)nc1` (stereo not shown) [Example 10], 2.02. In the case of `Fc1cccc(F)c1C1=NC(c2ccc(-c3cnc(N4CCCCCC4)nc3)cc2)CC1` (stereo not shown) [Example 105] it was 3.41. The figure for `Fc1cccc(F)c1C1=NC(c2ccc(-c3cnc(N4CCSCC4)nc3)cc2)CC1` (stereo not shown) [Example 140] is 3.13; for `Fc1cccc(F)c1C1=N[C@@H](c2ccc(-c3ccc(N4CCOCC4)nc3)cc2)CC1` [Example 164] it is 1.27; for `Fc1cccc(F)c1C1=NC(c2ccc(-c3ccc(Br)cn3)cc2)CC1` (stereo not shown) [Example 110] it is 3.07.

Take `Fc1cccc(F)c1C1=NC(c2ccc(-c3cnc(NC4CCCC4)nc3)cc2)CC1` (stereo not shown) [Example 161]: the chromatographic logP stood at 2.58.
